The target in the assay is T1, histamine H4 receptor (Homo sapiens, UniProt Q9H3N8).
T1 construct: expressed in transfected cells; host or cells: HEK293SFM cells (membrane preparation)
T1 sequence (Q9H3N8 whole entry): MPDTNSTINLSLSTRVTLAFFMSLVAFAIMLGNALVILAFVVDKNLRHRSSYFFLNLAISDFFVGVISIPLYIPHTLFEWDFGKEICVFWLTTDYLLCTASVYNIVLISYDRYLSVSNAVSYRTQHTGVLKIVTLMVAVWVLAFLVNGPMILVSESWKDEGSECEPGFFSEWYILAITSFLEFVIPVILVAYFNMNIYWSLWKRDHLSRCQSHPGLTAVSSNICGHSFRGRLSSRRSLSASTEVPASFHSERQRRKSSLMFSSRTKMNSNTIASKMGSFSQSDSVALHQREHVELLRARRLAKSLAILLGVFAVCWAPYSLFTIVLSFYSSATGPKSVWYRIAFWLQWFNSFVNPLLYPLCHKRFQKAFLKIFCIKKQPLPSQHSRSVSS
Briefly: H4 Membrane Binding Assay (3H-Histamine displacement). As to conditions: membranes of recombinant HEK293SFM cells, 10 nM 3H-Histamine, 1.5 hr at room temperature. The procedure, abridged:
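Radioligand is [3H]-histamine; 1000× unlabeled ligand sets nonspecific binding. Receptor source: membrane pellets from HEK293SFM cells carrying human H4 or other histamine subtypes (human H1–H3, mouse H4), in 50 mM Tris-HCl pH 7.5. Filtration through PEI-treated GF/B filters, then scintillation counting.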
`COC(=O)c1ccc(NC(=O)N2CCc3ccc(-c4cc(N5CCN(C)CC5)nc(N)n4)cc3C2)nc1` [Example 45, Methyl 6-({[7-[2-amino-6-(4-methylpiperazin-1-yl)pyrimidin-4-yl]-3,4-dihydroisoquinolin-2(1H)-yl]carbonyl}amino)nicotinate]: the IC50 – broadly, the concentration that gives 50% inhibition – is 60 nM.
On to `CN1CCN(c2cc(-c3ccc4c(c3)CN(C(=O)Cc3ccc(N5CCCC5)nc3)CC4)nc(N)n2)CC1` [Example 128, 4-(4-Methylpiperazin-1-yl)-6-{2-[(6-pyrrolidin-1-ylpyridin-3-yl)acetyl]-1,2,3,4-tetrahydroisoquinolin-7-yl}pyrimidin-2-amine], for which the IC50 came out at 45 nM.
Regarding `CN1CCN(c2nc(N)nc3cc(C(=O)N[C@@H](Cc4ccc(-c5ccccc5)cc4)C(=O)N(C)C)ccc23)CC1` [Example 139, 2-Amino-N-[(1S)-1-(biphenyl-4-ylmethyl)-2-(dimethylamino)-2-oxoethyl]-4-(4-methylpiperazin-1-yl)quinazoline-7-carboxamide], the IC50 was 25 nM.
As for `CC(NC(=O)N1CCc2ccc(-c3cc(N4CCN(C)CC4)nc(N)n3)cc2C1)c1ccn(C)n1` (stereo not shown) [Example 127, 7-[2-Amino-6-(4-methylpiperazin-1-yl)pyrimidin-4-yl]-N-[1-(1-methyl-1H-pyrazol-3-yl)ethyl]-3,4-dihydroisoquinoline-2(1H)-carboxamide], the figure is 253 nM; as for `COC(=O)[C@H](Cc1ccc(-c2ccccc2)cc1)NC(=O)c1ccc2c(N3CCN(C)CC3)nc(N)nc2c1` [Example 138, Methyl (2S)-2-({[2-amino-4-(4-methylpiperazin-1-yl)quinazolin-7-yl]carbonyl}amino)-3-biphenyl-4-ylpropanoate], 23 nM.
For the compound `COc1ccc(C#N)c(Oc2cccc(CNC(=O)c3ccc4c(N5CCN(C)CC5)nc(N)nc4c3)c2)c1` [Example 180, 2-Amino-N-[3-(2-cyano-5-methoxyphenoxy)benzyl]-4-(4-methylpiperazin-1-yl)quinazoline-7-carboxamide], the IC50 came to 25 nM.
As for `CN1CCN(c2cc(-c3ccc4c(c3)CN(C(=O)Cc3ccccc3)CC4)nc(N)n2)CC1` [Example 6, 4-(4-Methylpiperazin-1-yl)-6-[2-(phenylacetyl)-1,2,3,4-tetrahydroisoquinolin-7-yl]pyrimidin-2-amine], the IC50 came to 37.8 nM.
As for `CC(NC(=O)c1ccc2c(N3CCN(C)CC3)nc(N)nc2c1)c1cccc(Oc2ncccc2C#N)c1` (stereo not shown) [Example 199, 2-Amino-N-(1-{3-[(3-cyanopyridin-2-yl)oxy]phenyl}ethyl)-4-(4-methylpiperazin-1-yl)quinazoline-7-carboxamide], the figure is 63 nM; as for `CN1CCN(c2cc(-c3ccc4c(c3)CN(C(=O)NC3CCCC3)CC4)nc(N)n2)CC1` [Example 5, 7-[2-Amino-6-(4-methylpiperazin-1-yl)pyrimidin-4-yl]-N-cyclopentyl-3,4-dihydroisoquinoline-2(1H)-carboxamide], 20.8 nM; as for `C[C@H](NC(=O)c1ccc2c(N3CCN(C)CC3)nc(N)nc2c1)c1ccc2ccccc2c1` [Example 22, (S)-2-Amino-4-(4-methylpiperazin-1-yl)-N-(1-(naphthalen-2-yl)ethyl)quinazoline-7-carboxamide], 128 nM.
As for `CN1CCN(c2nc(N)nc3cc(C(=O)N4CCc5c(cccc5OCc5ccc(C#N)cc5)C4)ccc23)CC1` [Example 210, 4-((2-(2-Amino-4-(4-methylpiperazin-1-yl)quinazoline-7-carbonyl)-1,2,3,4-tetrahydroisoquinolin-5-yloxy)methyl)benzonitrile], the figure is 41 nM; as for `CN1CCN(c2cc(-c3ccc4c(c3)CN(C(=O)N[C@@H]3CCCC[C@@H]3OCC3CC3)CC4)nc(N)n2)CC1` (relative stereo) [Example 86], 49 nM.
Next, `COC(=O)[C@H](Cc1ccc(OC(C)C)cc1)NC(=O)c1ccc2c(N3CCN(C)CC3)nc(N)nc2c1` [Example 134, Methyl (2S)-2-({[2-amino-4-(4-methylpiperazin-1-yl)quinazolin-7-yl]carbonyl}amino)-3-(4-isopropoxyphenyl)propanoate]: 29 nM.

These data come from patent US8481732B2 (Incyte Corporation, priority 2009, dated 2013).
